Assay results from paper PMC7265434, “Zika Virus NS3 Protease Pharmacophore Anchor Model and Drug Discovery” (Scientific Reports, 2020).

Biological target: T1, ZIKV NS2B/NS3 protease (Zika virus, UniProt Q32ZE1)
T1 construct: cut from ZIKV genome polyprotein
Test: fluorogenic protease assay, AMC release
Format: biochemical

T1 sequence (Q32ZE1 1499-1668): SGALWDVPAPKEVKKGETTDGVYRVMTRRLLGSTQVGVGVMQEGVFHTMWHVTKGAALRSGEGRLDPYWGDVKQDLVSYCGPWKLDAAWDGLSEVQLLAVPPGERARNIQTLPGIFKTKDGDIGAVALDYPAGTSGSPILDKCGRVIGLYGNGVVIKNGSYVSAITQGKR
T1 sequence (Q32ZE1 1417-1463): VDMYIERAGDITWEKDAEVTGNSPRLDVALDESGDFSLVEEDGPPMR

SMILES	IC50 [µM]
C=C[C@@H]1C[C@]1(NC(=O)[C@@H]1C[C@@H](Oc2ncc(OC)c3ccc(Cl)cc23)CN1C(=O)[C@@H](NC(=O)OC(C)(C)C)C(C)(C)C)C(=O)NS(=O)(=O)C1CC1 [Asunaprevir]	6
COc1ccc2c(O[C@@H]3C[C@H]4C(=O)N[C@]5(C(=O)NS(=O)(=O)C6CC6)C[C@H]5/C=C\CCCCN(C)C(=O)[C@@H]4C3)cc(-c3nc(C(C)C)cs3)nc2c1C [Simeprevir]	2.6
